Results taken from US20170121315A1, “HETEROBICYCLICALLY SUBSTITUTED 4-OXOBUTANE ACID DERIVATIVES AND USE THEREOF” (priority 2014, published 2017).

Assays:
Type in all cases: biochemical
MMP-1 = target: T1, MMP-1 (Homo sapiens, UniProt P03956); test: In vitro MMP-1 inhibition test; conditions: human MMP-1
T1 construct: purchased R&D Systems 901-MP
T1 sequence (P03956 100-469): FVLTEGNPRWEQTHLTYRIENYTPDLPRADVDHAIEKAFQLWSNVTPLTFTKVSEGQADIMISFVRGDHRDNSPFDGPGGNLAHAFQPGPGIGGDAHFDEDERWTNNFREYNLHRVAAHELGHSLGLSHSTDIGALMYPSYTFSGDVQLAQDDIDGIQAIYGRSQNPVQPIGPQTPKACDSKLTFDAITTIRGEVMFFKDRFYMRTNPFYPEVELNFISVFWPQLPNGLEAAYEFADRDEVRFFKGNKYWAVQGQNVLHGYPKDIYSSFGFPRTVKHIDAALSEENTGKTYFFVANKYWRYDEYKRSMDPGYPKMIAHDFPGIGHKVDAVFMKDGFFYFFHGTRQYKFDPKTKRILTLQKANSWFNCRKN
From the text: (§1) The MMP-mediated amidolytic cleavage of a suitable peptide substrate leads to an increase in fluorescent light here too. The signal intensity of the fluorescent light is directly proportional to the enzyme activity. The active concentration of a test compound at which half the enzyme is inhibited (50% signal intensity of the fluorescent light) is reported as the IC50 value.
(§2) Recombinant MMP-1 (R&D Systems, 901-MP) is chemically activated in accordance with the manufacturer's instructions using APMA. 1 μl of the test compound to be analysed (as a solution in DMSO, suitable concentrations e.g. 1 nM to 30 μM) is pipetted into 24 μl of activated enzyme (final concentration e.g. 2 nM) in reaction buffer (50 mM Tris/HCl pH 7.5, 10 mM CaCl2, 150 mM NaCl, 0.05% Brij®-35) in a white 384-hole microtiter plate (MTP). The enzymatic reaction is started by adding the intramolecularly quenched Mca-Pro-Leu-Gly-Leu-Dpa(Dnp)-Ala-Arg-NH2 substrate (final concentration e.g. 10 μM; R&D Systems, ES-001), so as to result in a total test volume of 50 μl. The course of the MMP-1 reaction is measured by measuring the fluorescence intensity (excitation 320 nm, emission 410 nm) over a suitable period of time (e.g. over 120 min at a temperature of 32° C.).

MMP-2 = target: T2, MMP-2 (Homo sapiens, UniProt P08253); test: In vitro MMP-2 inhibition test; conditions: human MMP-2
T2 construct: purchased R&D Systems 902-MP
T2 sequence (P08253 110-660): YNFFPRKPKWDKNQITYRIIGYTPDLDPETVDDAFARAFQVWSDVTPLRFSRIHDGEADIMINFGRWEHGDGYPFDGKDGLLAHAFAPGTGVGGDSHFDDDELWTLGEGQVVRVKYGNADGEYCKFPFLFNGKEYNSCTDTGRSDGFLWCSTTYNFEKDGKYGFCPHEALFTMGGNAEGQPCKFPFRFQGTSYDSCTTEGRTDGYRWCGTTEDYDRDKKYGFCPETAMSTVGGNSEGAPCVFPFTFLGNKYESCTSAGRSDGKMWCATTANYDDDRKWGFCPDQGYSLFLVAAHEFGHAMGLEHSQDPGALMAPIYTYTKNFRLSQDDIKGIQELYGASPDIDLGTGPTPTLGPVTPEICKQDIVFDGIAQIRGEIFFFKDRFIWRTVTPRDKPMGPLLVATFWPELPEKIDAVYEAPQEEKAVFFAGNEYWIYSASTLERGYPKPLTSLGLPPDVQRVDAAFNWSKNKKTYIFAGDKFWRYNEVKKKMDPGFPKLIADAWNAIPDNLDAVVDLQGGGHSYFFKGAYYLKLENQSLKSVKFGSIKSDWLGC
From the text: as §1
as §2, with “MMP-2” for “MMP-1”, “902-MP)” for “901-MP)”

MMP-13 = target: T3, MMP-13 (Homo sapiens, UniProt P45452); test: In vitro MMP-13 inhibition test; conditions: human MMP-13
T3 construct: purchased R&D Systems 511-MP
From the text: as §1
as §2, with “Recombinant MMP-13” for “Recombinant MMP-1”, “Systems, 511-MP)” for “Systems, 901-MP)”, “e.g. 0.1” for “e.g. 2”, “the MMP-13” for “the MMP-1”

SMILES | IC50 (MMP-1) [µM] | IC50 (MMP-2) [µM] | IC50 (MMP-13) [µM]
O=C(CC(CCn1nnc2ccccc2c1=O)C(=O)O)c1cc2cc(OCc3ccc(C(F)(F)F)cc3)ccc2o1 (racemic) [Example 44, (+/−)-4-Oxo-2-[2-(4-oxo-1,2,3-benzotriazin-3(4H)-yl)ethyl]-4-(5-{[4-(trifluoromethyl)benzyl]oxy}-1-benzofur-2-yl)butanoic acid] | > 40 | > 40 | 2.1
CCCOc1ccc2cc(C(=O)CC(CCn3nnc4ccccc4c3=O)C(=O)O)oc2c1 (racemic) [Example 58, (+/−)-4-Oxo-2-[2-(4-oxo-1,2,3-benzotriazin-3(4H)-yl)ethyl]-4-(6-propoxy-1-benzofur-2-yl)butanoic acid] | > 40 | 10 | > 40
O=C(CC(CCn1nnc2ccccc2c1=O)C(=O)O)c1cc2ccc(OCC3CC3)cc2s1 (racemic) [Example 111, (+/−)-4-[6-(Cyclopropylmethoxy)-1-benzothiophen-2-yl]-4-oxo-2-[2-(4-oxo-1,2,3-benzotriazin-3(4H)-yl)ethyl]butanoic acid] | > 40 | 0.35 | 1.9
CCCCCCCOc1ccc2cc(C(=O)CC(CCn3nnc4ccccc4c3=O)C(=O)O)oc2c1 (single isomer, unassigned; (+)) [Example 69, (+)-4-[6-(Heptyloxy)-1-benzofur-2-yl]-4-oxo-2-[2-(4-oxo-1,2,3-benzotriazin-3(4H)-yl)ethyl]butanoic acid acid] | > 40 | 2.9 | 3.6
O=C(CC(CCn1nnc2ccccc2c1=O)C(=O)O)c1noc2cc(OCC3CCCCC3)ccc12 (racemic) [Example 153, (+/−)-4-[6-(Cyclohexylmethoxy)-1,2-benzoxazol-3-yl]-4-oxo-2-[2-(4-oxo-1,2,3-benzotriazin-3(4H)-yl)ethyl]butanoic acid] | > 40 | 0.42 | 2.8
Cc1cccc(COc2ccc3oc(C(=O)CC(CCn4nnc5ccccc5c4=O)C(=O)O)cc3c2)c1 (racemic) [Example 51, (+/−)-4-{5-[(3-Methylbenzyl)oxy]-1-benzofur-2-yl}-4-oxo-2-[2-(4-oxo-1,2,3-benzotriazin-3(4H)-yl)ethyl]butanoic acid] | > 40 | 19 | 11
O=C(CC(CCn1nnc2ccccc2c1=O)C(=O)O)c1cc2ccc(OCCc3ccccc3)cc2o1 (racemic) [Example 73, (+/−)-4-Oxo-2-[2-(4-oxo-1,2,3-benzotriazin-3(4H)-yl)ethyl]-4-[6-(2-phenylethoxy)-1-benzofur-2-yl]butanoic acid] | > 40 | 1.3 | 4.7
NC(=O)c1cccc(COc2ccc3oc(C(=O)CC(CCn4nnc5ccccc5c4=O)C(=O)O)cc3c2)c1 (single isomer, unassigned; (+)) [Example 34, (+)-4-{5-[(3-Carbamoylbenzyl)oxy]-1-benzofur-2-yl}-4-oxo-2-[2-(4-oxo-1,2,3-benzotriazin-3(4H)-yl)ethyl]butanoic acid] | > 40 | 0.49 | 1.6
O=C(CC(CCn1nnc2ccccc2c1=O)C(=O)O)c1cc2cc(OCc3ccccc3)ccc2o1 (single isomer, unassigned; (+)) [Example 30, (+)-4-[5-(Benzyloxy)-1-benzofur-2-yl]-4-oxo-2-[2-(4-oxo-1,2,3-benzotriazin-3(4H)-yl)ethyl]butanoic acid] | > 40 | 6.1 | 10
O=C(CC(CCn1nnc2ccccc2c1=O)C(=O)O)c1noc2cc(OCc3ccc(F)cc3)ccc12 (racemic) [Example 136, (+/−)-4-{6-[(4-Fluorobenzyl)oxy]-1,2-benzoxazol-3-yl}-4-oxo-2-[2-(4-oxo-1,2,3-benzotriazin-3(4H)-yl)ethyl]butanoic acid] | > 40 | 0.32 | 0.97
O=C(CC(CCn1nnc2ccccc2c1=O)C(=O)O)c1cc2cc(OCc3cccc(Cl)c3)ccc2o1 (racemic) [Example 50, (+/−)-4-{5-[(3-Chlorobenzyl)oxy]-1-benzofur-2-yl}-4-oxo-2-[2-(4-oxo-1,2,3-benzotriazin-3(4H)-yl)ethyl]butanoic acid] | > 40 | 3.8 | 4
O=C(CC(CCn1nnc2ccccc2c1=O)C(=O)O)c1coc2cc(OCC3CCCCC3)ccc12 (single isomer, unassigned; (+)) [Example 82, (+)-4-[6-(Cyclohexylmethoxy)-1-benzofur-3-yl]-4-oxo-2-[2-(4-oxo-1,2,3-benzotriazin-3(4H)-yl)ethyl]butanoic acid] | > 40 | 0.17 | 1.3
CCCCCCOc1ccc2c(C(=O)CC(CCn3nnc4ccccc4c3=O)C(=O)O)coc2c1 (single isomer, unassigned; (+)) [Example 100, (+)-4-[6-(Hexyloxy)-1-benzofur-3-yl]-4-oxo-2-[2-(4-oxo-1,2,3-benzotriazin-3(4H)-yl)ethyl]butanoic acid] | > 40 | 0.14 | 0.14
CCCCCOc1ccc2c(C(=O)CC(CCn3nnc4ccccc4c3=O)C(=O)O)coc2c1 (racemic) [Example 89, (+/−)-4-Oxo-2-[2-(4-oxo-1,2,3-benzotriazin-3(4H)-yl)ethyl]-4-[6-(pentyloxy)-1-benzofur-3-yl]butanoic acid] | > 40 | 0.29 | 0.67
O=C(CC(CCn1nnc2ccccc2c1=O)C(=O)O)c1cc2cc(OCC3CCOCC3)ccc2o1 (racemic) [Example 5, (+/−)-4-Oxo-2-[2-(4-oxo-1,2,3-benzotriazin-3(4H)-yl)ethyl]-4-[5-(tetrahydro-2H-pyran-4-ylmethoxy)-1-benzofur-2-yl]butanoic acid] | > 40 | 5 | 13
O=C(CC(CCn1nnc2ccccc2c1=O)C(=O)O)c1cc2cc(OCCC3CCCC3)ccc2o1 (racemic) [Example 7, (+/−)-4-[5-(2-Cyclopentylethoxy)-1-benzofur-2-yl]-4-oxo-2-[2-(4-oxo-1,2,3-benzotriazin-3(4H)-yl)ethyl]butanoic acid] | > 40 | 0.92 | 5
